# Data as given in publication PMC4490784, “Compensatory induction of MYC expression by sustained CDK9 inhibition via a BRD4-dependent mechanism” (eLife, 2015).
# Columns and labels:
# Experiment in all cases: biochemical binding or enzymatic assay
# PCTK3 = molecular target: T1, PCTK3 (Homo sapiens, UniProt Q07002); conditions: Ambit
# T1 construct: purchased DiscoveRx KINOMEscan
# Experimental: (§1) Finally, the selectivity profile of i-CDK9 toward other non-CDK kinases was also assessed using the KINOMEscan platform. […] Except for CLK4, for which no suitable assay was available, the rest of the kinases plus a selected group of others were re-examined for the concentration-dependent effect of i-CDK9 in either functional kinase assays or binding assays. […] Indeed, it has recently been reported that DYRK1A acts as a Pol II CTD Kinase at its target gene promoters ([Di Vona et al., 2015]).
# AXL = molecular target: T2, AXL (Homo sapiens, UniProt P30530); conditions: Novartis
# T2 construct: purchased DiscoveRx KINOMEscan
# Experimental: as §1
# PLK1 = molecular target: T3, PLK1 (Homo sapiens, UniProt P53350); conditions: Novartis
# T3 construct: purchased DiscoveRx KINOMEscan
# Experimental: as §1
# AKT1 = molecular target: T4, AKT1 (Homo sapiens, UniProt P31749); conditions: Novartis
# T4 construct: purchased DiscoveRx KINOMEscan
# Experimental: as §1
# FGFR2 = molecular target: T5, FGFR2 (Homo sapiens, UniProt P21802); conditions: Novartis
# T5 construct: purchased DiscoveRx KINOMEscan
# Experimental: as §1
# ERK2 = molecular target: T6, ERK2 (Homo sapiens, UniProt P28482); conditions: Novartis
# T6 construct: purchased DiscoveRx KINOMEscan
# Experimental: as §1
# MAPKAPK5 = molecular target: T7, MAPKAPK5 (Homo sapiens, UniProt Q8IW41); conditions: Novartis
# T7 construct: purchased DiscoveRx KINOMEscan
# T7 sequence (Q8IW41 1-473): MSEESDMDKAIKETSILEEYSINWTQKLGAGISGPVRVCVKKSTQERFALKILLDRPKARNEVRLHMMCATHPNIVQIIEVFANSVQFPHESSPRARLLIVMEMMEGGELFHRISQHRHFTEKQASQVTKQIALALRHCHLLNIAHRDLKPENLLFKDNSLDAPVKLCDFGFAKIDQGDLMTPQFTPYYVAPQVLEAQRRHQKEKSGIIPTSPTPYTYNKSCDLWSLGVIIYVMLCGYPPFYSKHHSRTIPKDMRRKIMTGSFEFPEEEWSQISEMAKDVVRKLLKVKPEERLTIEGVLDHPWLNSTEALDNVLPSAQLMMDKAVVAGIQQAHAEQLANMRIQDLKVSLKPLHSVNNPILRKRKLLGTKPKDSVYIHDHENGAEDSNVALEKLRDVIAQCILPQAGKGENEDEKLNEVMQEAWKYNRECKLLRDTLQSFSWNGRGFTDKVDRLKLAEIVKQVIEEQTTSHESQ
# Experimental: as §1
# FAK = molecular target: T8, FAK (Homo sapiens, UniProt Q05397); conditions: Novartis
# T8 construct: purchased DiscoveRx KINOMEscan
# Experimental: as §1
# FGFR3 = molecular target: T9, FGFR3 (Homo sapiens, UniProt P22607); conditions: Novartis
# T9 construct: purchased DiscoveRx KINOMEscan
# Experimental: as §1
# FGFR1 = molecular target: T10, FGFR1 (Homo sapiens, UniProt P11362); conditions: Novartis
# T10 construct: purchased DiscoveRx KINOMEscan
# Experimental: as §1
# CAMK2D = molecular target: T11, CAMK2D (Homo sapiens, UniProt Q13557); conditions: Novartis
# T11 construct: purchased DiscoveRx KINOMEscan
# Experimental: as §1
# PKN2 = molecular target: T12, PKN2 (Homo sapiens, UniProt Q16513); conditions: Novartis
# T12 construct: purchased DiscoveRx KINOMEscan
# Experimental: as §1
# IGF1R = molecular target: T13, IGF1R (Homo sapiens, UniProt P08069); conditions: Novartis
# T13 construct: purchased DiscoveRx KINOMEscan
# Experimental: as §1
# PAK2 = molecular target: T14, PAK2 (Homo sapiens, UniProt Q13177); conditions: Novartis
# T14 construct: purchased DiscoveRx KINOMEscan
# Experimental: as §1
# MAPKAPK2 = molecular target: T15, MAPKAPK2 (Homo sapiens, UniProt P49137); conditions: Novartis
# T15 construct: purchased DiscoveRx KINOMEscan
# Experimental: as §1
# PDPK1 = molecular target: T16, PDPK1 (Homo sapiens, UniProt O15530); conditions: Novartis
# T16 construct: purchased DiscoveRx KINOMEscan
# T16 sequence (O15530 1-556): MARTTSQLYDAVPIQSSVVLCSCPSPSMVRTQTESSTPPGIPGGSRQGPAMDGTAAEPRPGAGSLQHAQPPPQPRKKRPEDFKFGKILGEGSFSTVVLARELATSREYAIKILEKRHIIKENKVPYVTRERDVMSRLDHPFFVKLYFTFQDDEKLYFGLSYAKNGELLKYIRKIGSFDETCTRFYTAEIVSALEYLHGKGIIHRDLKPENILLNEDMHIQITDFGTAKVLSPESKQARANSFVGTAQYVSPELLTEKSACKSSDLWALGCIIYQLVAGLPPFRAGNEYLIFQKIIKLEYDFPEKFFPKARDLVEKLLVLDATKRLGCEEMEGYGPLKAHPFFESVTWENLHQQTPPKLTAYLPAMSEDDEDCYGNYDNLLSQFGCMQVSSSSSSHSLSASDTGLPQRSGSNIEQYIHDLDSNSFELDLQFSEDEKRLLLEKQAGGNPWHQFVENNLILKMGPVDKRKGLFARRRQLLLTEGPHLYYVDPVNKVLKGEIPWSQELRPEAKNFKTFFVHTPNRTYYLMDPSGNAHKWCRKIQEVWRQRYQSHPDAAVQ
# Experimental: as §1
# FYN = molecular target: T17, FYN (Homo sapiens, UniProt P06241); conditions: Novartis
# T17 construct: purchased DiscoveRx KINOMEscan
# Experimental: as §1
# ROCK2 = molecular target: T18, ROCK2 (Homo sapiens, UniProt O75116); conditions: Novartis
# T18 construct: purchased DiscoveRx KINOMEscan
# Experimental: as §1
# DYRK2 = molecular target: T19, DYRK2 (Homo sapiens, UniProt Q92630); conditions: Millipore
# T19 construct: purchased DiscoveRx KINOMEscan
# T19 sequence (Q92630 1-601): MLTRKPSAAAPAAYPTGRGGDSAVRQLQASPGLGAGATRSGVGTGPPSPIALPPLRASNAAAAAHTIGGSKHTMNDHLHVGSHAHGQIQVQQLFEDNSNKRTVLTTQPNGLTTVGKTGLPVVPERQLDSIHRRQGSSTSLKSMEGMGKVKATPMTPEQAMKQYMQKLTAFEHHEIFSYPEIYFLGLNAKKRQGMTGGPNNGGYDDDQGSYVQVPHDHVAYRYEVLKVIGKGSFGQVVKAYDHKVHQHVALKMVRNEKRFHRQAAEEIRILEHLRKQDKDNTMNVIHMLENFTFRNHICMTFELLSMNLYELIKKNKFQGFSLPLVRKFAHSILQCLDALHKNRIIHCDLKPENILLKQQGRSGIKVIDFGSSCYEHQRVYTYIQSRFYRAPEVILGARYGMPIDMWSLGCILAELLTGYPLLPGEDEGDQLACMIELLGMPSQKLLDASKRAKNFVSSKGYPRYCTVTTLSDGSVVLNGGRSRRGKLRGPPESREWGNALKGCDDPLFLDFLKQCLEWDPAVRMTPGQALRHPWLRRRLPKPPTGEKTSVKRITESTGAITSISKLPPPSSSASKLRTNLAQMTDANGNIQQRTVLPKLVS
# Experimental: as §1
# YES = molecular target: T20, YES (Homo sapiens, UniProt P07947); conditions: Novartis
# T20 construct: purchased DiscoveRx KINOMEscan
# Experimental: as §1
# T4 sequence (P31749 whole entry): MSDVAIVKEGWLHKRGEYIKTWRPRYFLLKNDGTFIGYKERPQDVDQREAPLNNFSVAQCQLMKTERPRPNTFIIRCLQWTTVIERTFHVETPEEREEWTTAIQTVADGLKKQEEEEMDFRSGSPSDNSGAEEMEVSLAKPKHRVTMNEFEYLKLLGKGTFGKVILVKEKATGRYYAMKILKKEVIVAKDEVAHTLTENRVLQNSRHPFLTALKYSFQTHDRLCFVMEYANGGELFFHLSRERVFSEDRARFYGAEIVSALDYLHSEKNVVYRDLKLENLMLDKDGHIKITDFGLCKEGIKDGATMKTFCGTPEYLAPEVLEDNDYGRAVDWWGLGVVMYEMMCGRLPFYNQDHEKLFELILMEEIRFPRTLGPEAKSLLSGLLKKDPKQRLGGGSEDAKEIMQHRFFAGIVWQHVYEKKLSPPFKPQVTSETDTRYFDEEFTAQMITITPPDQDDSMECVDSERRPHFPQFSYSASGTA
# T3 sequence (P53350 whole entry): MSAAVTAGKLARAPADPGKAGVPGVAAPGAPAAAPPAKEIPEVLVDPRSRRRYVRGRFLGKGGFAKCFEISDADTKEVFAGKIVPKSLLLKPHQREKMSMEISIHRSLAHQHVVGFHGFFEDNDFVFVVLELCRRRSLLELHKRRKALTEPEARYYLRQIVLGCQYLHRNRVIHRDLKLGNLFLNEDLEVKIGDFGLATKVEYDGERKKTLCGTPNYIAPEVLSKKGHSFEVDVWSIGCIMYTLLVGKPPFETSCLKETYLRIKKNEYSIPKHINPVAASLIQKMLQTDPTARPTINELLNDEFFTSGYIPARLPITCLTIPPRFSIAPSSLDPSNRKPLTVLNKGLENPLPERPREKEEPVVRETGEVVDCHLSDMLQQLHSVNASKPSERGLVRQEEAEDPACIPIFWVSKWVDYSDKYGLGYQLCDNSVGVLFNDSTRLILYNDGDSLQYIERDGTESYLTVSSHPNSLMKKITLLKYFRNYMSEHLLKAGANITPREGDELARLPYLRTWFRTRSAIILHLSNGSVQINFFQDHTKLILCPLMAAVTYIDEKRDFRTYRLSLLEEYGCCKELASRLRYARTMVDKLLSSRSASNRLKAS
# T20 sequence (P07947 whole entry): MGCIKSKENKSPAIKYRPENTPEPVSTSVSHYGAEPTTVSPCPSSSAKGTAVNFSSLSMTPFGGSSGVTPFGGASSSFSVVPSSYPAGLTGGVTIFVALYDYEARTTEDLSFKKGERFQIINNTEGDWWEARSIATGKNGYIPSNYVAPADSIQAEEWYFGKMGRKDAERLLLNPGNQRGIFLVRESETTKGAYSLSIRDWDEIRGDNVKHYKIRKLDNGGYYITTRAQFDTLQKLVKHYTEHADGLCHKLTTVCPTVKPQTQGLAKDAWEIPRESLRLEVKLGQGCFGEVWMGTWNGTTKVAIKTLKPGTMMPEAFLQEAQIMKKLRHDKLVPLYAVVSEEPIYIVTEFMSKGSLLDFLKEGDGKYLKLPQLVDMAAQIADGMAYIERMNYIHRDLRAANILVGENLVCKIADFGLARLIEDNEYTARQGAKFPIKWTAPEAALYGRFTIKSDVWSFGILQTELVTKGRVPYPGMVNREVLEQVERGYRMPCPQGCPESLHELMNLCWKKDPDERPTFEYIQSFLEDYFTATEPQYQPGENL
# T12 sequence (Q16513 whole entry): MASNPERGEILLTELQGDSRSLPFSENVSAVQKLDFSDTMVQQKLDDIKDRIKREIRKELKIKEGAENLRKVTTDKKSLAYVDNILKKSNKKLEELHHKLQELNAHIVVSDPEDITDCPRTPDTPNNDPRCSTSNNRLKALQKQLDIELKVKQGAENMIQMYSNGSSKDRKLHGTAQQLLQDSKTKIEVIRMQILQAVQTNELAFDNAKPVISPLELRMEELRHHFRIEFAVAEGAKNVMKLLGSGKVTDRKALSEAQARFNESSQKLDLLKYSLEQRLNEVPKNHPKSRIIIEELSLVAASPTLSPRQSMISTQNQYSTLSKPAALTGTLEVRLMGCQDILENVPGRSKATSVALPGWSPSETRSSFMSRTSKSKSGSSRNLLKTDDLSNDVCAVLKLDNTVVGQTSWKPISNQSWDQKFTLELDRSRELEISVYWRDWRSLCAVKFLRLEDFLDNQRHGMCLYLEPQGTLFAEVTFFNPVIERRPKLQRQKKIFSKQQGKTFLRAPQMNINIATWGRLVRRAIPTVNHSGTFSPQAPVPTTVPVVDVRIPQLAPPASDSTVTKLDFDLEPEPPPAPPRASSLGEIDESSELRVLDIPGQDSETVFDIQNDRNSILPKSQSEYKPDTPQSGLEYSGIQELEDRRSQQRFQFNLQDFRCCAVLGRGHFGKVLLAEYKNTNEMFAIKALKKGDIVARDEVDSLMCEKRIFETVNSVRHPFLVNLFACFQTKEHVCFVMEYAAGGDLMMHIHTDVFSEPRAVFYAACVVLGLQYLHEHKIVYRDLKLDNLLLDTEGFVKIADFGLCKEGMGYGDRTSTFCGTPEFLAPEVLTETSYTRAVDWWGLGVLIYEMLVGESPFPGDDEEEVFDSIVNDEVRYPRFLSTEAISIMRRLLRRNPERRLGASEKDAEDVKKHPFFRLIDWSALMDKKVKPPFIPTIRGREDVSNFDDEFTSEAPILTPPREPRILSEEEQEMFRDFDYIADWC
# T10 sequence (P11362 22-822): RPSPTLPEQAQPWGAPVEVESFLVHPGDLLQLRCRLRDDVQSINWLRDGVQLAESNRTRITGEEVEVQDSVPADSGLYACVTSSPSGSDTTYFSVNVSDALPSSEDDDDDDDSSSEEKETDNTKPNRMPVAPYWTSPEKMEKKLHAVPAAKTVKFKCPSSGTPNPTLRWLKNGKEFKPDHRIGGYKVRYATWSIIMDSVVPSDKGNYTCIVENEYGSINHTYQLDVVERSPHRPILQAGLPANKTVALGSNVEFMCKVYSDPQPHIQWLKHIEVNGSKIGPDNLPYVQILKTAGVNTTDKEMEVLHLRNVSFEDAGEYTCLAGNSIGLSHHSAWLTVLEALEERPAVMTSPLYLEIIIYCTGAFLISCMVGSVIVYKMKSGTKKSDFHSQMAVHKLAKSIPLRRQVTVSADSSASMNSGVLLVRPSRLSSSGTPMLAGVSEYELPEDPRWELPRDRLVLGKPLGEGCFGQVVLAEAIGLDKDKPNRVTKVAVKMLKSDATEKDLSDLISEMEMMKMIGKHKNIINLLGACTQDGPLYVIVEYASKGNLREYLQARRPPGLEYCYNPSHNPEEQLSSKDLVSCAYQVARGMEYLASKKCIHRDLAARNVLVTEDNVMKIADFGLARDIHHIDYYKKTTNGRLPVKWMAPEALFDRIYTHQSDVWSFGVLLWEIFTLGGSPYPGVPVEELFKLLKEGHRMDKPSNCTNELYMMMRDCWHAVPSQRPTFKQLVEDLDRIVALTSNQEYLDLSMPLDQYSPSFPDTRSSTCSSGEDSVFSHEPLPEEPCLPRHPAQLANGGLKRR
# T11 sequence (Q13557 whole entry): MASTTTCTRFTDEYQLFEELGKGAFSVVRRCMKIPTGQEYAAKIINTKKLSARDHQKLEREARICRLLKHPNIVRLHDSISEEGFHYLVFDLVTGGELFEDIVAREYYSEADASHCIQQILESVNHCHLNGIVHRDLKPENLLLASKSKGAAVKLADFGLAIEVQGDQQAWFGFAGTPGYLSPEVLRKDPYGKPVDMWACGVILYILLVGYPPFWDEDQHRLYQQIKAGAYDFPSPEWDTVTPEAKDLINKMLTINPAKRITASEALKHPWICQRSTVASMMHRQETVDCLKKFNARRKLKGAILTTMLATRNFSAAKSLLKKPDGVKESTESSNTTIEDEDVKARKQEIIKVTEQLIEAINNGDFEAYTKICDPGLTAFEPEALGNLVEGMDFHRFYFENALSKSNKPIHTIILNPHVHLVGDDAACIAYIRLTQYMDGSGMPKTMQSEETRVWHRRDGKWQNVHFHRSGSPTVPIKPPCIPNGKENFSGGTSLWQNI
# T5 sequence (P21802 22-821): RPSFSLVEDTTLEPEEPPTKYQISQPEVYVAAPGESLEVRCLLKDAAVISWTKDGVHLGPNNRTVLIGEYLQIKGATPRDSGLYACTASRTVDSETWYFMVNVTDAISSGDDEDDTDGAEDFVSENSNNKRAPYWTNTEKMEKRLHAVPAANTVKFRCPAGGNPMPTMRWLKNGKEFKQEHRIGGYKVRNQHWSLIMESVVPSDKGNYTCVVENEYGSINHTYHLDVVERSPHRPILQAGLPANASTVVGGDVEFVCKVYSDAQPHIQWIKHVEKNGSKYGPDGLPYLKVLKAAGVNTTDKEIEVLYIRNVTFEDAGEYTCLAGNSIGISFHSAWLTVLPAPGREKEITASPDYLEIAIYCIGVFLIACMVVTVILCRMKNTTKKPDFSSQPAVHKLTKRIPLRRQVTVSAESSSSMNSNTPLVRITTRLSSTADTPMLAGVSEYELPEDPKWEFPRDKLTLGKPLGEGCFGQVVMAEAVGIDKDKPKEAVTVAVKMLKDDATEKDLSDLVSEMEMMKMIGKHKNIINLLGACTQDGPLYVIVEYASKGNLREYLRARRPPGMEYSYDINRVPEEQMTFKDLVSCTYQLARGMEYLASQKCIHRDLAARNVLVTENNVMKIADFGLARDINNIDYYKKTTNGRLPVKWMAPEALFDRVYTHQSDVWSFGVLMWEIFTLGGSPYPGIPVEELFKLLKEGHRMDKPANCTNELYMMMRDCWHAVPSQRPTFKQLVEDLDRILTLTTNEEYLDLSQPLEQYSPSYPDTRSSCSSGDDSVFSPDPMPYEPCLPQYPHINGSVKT
compound,measurement,setting,value
"N[C@H]1CC[C@H](Nc2cc(-c3cccc(NCc4cccc(F)c4)n3)c(Cl)cn2)CC1 [i-CDK9, N2′-(trans-4-aminocyclohexyl)-5′-chloro-N6-(3-fluorobenzyl)-2,4′-bipyridine-2′,6-diamine]",IC50,PCTK3,> 0.45 µM
same,IC50,AXL,> 10 µM
same,IC50,PLK1,> 10 µM
same,IC50,AKT1,> 10 µM
same,IC50,FGFR2,> 10 µM
same,IC50,ERK2,> 10 µM
same,IC50,MAPKAPK5,> 10 µM
same,IC50,FAK,> 10 µM
same,IC50,FGFR3,> 10 µM
same,IC50,FGFR1,> 10 µM
same,IC50,CAMK2D,4 µM
same,IC50,PKN2,> 10 µM
same,IC50,IGF1R,> 10 µM
same,IC50,PAK2,> 10 µM
same,IC50,MAPKAPK2,> 10 µM
same,IC50,PDPK1,> 10 µM
same,IC50,FYN,> 10 µM
same,IC50,ROCK2,> 10 µM
same,IC50,DYRK2,1.07 µM
same,IC50,YES,> 10 µM
